Key:
Assay type in all cases: in vivo
[1] = system: bermudagrass (Cynodon dactylon); experiment: Test C pre-/postemergence: bermudagrass
Procedure, shortened: (§1)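 Visual injury scored 0–100 (100 = complete control) against untreated controls after 13–15 greenhouse days. Surfactant-containing solvent formulations applied either to soil after sowing (loam/sand) or over 1- to 4-leaf plants, 2–18 cm tall.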

[2] = system: canarygrass (Phalaris minor); experiment: Test D pre-/postemergence: canarygrass
Procedure, shortened: (§2)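 Applied as a non-phytotoxic solvent formulation with surfactant, compounds were tested preemergence in silt loam and postemergence on seedlings 2 to 18 cm high in peat-vermiculite medium. Evaluation was visual, 0 meaning no effect and 100 complete control, at 14 to 21 days.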

[3] = system: bromegrass, downy (downy bromegrass, Bromus tectorum); experiment: Test C pre-/postemergence: bromegrass, downy
Procedure, shortened: as §1

[4] = system: common (oilseed) sunflower (Helianthus annuus); experiment: Test C pre-/postemergence: sunflower; settings: Preemergence
Procedure, shortened: as §1

[5] = system: lambsquarters (Chenopodium album); experiment: Test D pre-/postemergence: lambsquarters
Procedure, shortened: as §2

[6] = system: deadnettle (henbit deadnettle, Lamium amplexicaule); experiment: Test D pre-/postemergence: deadnettle
Procedure, shortened: as §2

[7] = system: oat, wild (wild oat, Avena fatua); experiment: Test D pre-/postemergence: oat, wild
Procedure, shortened: as §2

[8] = system: barnyardgrass (Echinochloa crus-galli); experiment: Test B flooded paddy: barnyardgrass; settings: Flood; 250 g ai/ha; applied to paddy water at 2-leaf stage; visually evaluated after 13 to 15 days
Procedure, shortened: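 Two-leaf-stage plants, pots flooded (3 cm above soil) and treated through the water, which stayed at that depth. After 13–15 days in greenhouse conditions, visual assessment versus controls: 0 is no effect, 100 complete control, dash means no result.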

[9] = Postemergence, 31 g ai/ha, scale 0 to 100 (0 no effect, 100 complete control)
[10] = Postemergence, 62 g ai/ha, scale 0 to 100 (0 no effect, 100 complete control)
[11] = Postemergence, 125 g ai/ha, scale 0 to 100, 0 no effect, 100 complete control
[12] = Postemergence, 250 g ai/ha, scale 0 to 100
[13] = Preemergence, 31 g ai/ha, scale of 0 to 100, 0 is no effect, 100 is complete control
[14] = Preemergence, 62 g ai/ha, scale of 0 to 100, 0 is no effect, 100 is complete control
[15] = Preemergence, 125 g ai/ha, scale 0 to 100, 0 no effect, 100 complete control
[16] = Preemergence, 250 g ai/ha, scale 0 to 100, 0 no effect, 100 complete control
[17] = Postemergence, 8 g ai/ha, scale 0 to 100
[18] = Postemergence, 16 g ai/ha, scale 0 to 100
[19] = 31 g ai/ha, scale of 0 to 100, 0 is no effect, 100 is complete control
[20] = 62 g ai/ha, scale of 0 to 100, 0 is no effect, 100 is complete control
[21] = 125 g ai/ha, scale 0 to 100, 0 no effect, 100 complete control
[22] = 250 g ai/ha, scale 0 to 100, 0 no effect, 100 complete control
[23] = Preemergence, 16 g ai/ha, scale 0 to 100 (0 no effect, 100 complete control)
[24] = Preemergence, 31 g ai/ha, scale 0 to 100 (0 no effect, 100 complete control)
[25] = Preemergence, 62 g ai/ha, scale 0 to 100
[26] = Preemergence, 125 g ai/ha, scale 0 to 100

## Cc1nn(-c2ccc(F)c(F)c2)nc1Oc1ccnc(C(F)(F)F)c1 [Compound 145]
[1]; [9]
  Plant response rating, Bermudagrass: 10
[1]; [10]
  Plant response rating, Bermudagrass: 40
[1]; [11]
  Plant response rating, Bermudagrass: 75
[1]; [12]
  Plant response rating, Bermudagrass: 90
[1]; [13]
  Plant response rating, Bermudagrass: 98
[1]; [14]
  Plant response rating, Bermudagrass: 98
[1]; [15]
  Plant response rating, Bermudagrass: 98
[1]; [16]
  Plant response rating, Bermudagrass: 98
[2]; [9]
  Plant response rating: Canarygrass: 35
[2]; [10]
  Plant response rating: Canarygrass: 35
[2]; [11]
  Plant response rating: Canarygrass: 60
[2]; [17]
  Plant response rating, Canarygrass: 20
[2]; [18]
  Plant response rating, Canarygrass: 30
[3]; [9]
  Plant response rating, Bromegrass, Downy: 5
[3]; [10]
  Plant response rating, Bromegrass, Downy: 10
[3]; [11]
  Plant response rating, Bromegrass, Downy: 20
[3]; [12]
  Plant response rating, Bromegrass, Downy: 25
[3]; [13]
  Plant response rating, Bromegrass, Downy: 5
[3]; [14]
  Plant response rating, Bromegrass, Downy: 20
[3]; [15]
  Plant response rating, Bromegrass, Downy: 70
[3]; [16]
  Plant response rating, Bromegrass, Downy: 85
[4]; [19]
  Plant response rating, Sunflower: 0
[4]; [20]
  Plant response rating, Sunflower: 5
[4]; [21]
  Plant response rating, Sunflower: 20
[4]; [22]
  Plant response rating, Sunflower: 25
[5]; [9]
  Plant response rating: Lambsquarters: 90
[5]; [10]
  Plant response rating: Lambsquarters: 100
[5]; [11]
  Plant response rating: Lambsquarters: 100
[5]; [17]
  Plant response rating, Lambsquarters: 10
[5]; [18]
  Plant response rating, Lambsquarters: 25
[6]; [9]
  Plant response rating: Deadnettle: 70
[6]; [10]
  Plant response rating: Deadnettle: 90
[6]; [11]
  Plant response rating: Deadnettle: 100
[6]; [17]
  Plant response rating, Deadnettle: 0
[6]; [18]
  Plant response rating, Deadnettle: 50
[7]; [9]
  Plant response rating: Oat, Wild: 20
[7]; [10]
  Plant response rating: Oat, Wild: 30
[7]; [11]
  Plant response rating: Oat, Wild: 35
[7]; [17]
  Plant response rating, Oat, Wild: 10
[7]; [18]
  Plant response rating, Oat, Wild: 10
[8]
  Plant response rating, Barnyardgrass (0 to 100 scale, 0 is no effect, 100 is complete control): 90

## Cc1nn(-c2ccc(F)c(C(F)(F)F)c2)nc1Oc1ccnc(C(F)(F)F)c1 [Compound 147]
[1]; [13]
  Plant response rating, Bermudagrass: 100
[1]; [14]
  Plant response rating, Bermudagrass: 100
[1]; [15]
  Plant response rating, Bermudagrass: 100
[1]; [16]
  Plant response rating, Bermudagrass: 100
[2]; [9]
  Plant response rating: Canarygrass: 35
[2]; [10]
  Plant response rating: Canarygrass: 55
[2]; [11]
  Plant response rating: Canarygrass: 80
[2]; [18]
  Plant response rating, Canarygrass: 15
[2]; [23]
  Plant response rating, Canarygrass: 5
[2]; [24]
  Plant response rating, Canarygrass: 35
[2]; [25]
  Plant response rating, Canarygrass: 100
[2]; [26]
  Plant response rating, Canarygrass: 100
[3]; [13]
  Plant response rating, Bromegrass, Downy: 10
[3]; [14]
  Plant response rating, Bromegrass, Downy: 45
[3]; [15]
  Plant response rating, Bromegrass, Downy: 85
[3]; [16]
  Plant response rating, Bromegrass, Downy: 90
[4]; [19]
  Plant response rating, Sunflower: 15
[4]; [20]
  Plant response rating, Sunflower: 15
[4]; [21]
  Plant response rating, Sunflower: 15
[4]; [22]
  Plant response rating, Sunflower: 25
[5]; [9]
  Plant response rating: Lambsquarters: 75
[5]; [10]
  Plant response rating: Lambsquarters: 90
[5]; [11]
  Plant response rating: Lambsquarters: 95
[5]; [18]
  Plant response rating, Lambsquarters: 75
[5]; [23]
  Plant response rating, Lambsquarters: 5
[5]; [24]
  Plant response rating, Lambsquarters: 50
[5]; [25]
  Plant response rating, Lambsquarters: 80
[5]; [26]
  Plant response rating, Lambsquarters: 85
[6]; [9]
  Plant response rating: Deadnettle: 95
[6]; [10]
  Plant response rating: Deadnettle: 90
[6]; [11]
  Plant response rating: Deadnettle: 100
[6]; [18]
  Plant response rating, Deadnettle: 65
[6]; [23]
  Plant response rating, Deadnettle: 5
[6]; [24]
  Plant response rating, Deadnettle: 10
[6]; [25]
  Plant response rating, Deadnettle: 100
[6]; [26]
  Plant response rating, Deadnettle: 100
[7]; [9]
  Plant response rating: Oat, Wild: 15
[7]; [10]
  Plant response rating: Oat, Wild: 30
[7]; [11]
  Plant response rating: Oat, Wild: 35
[7]; [18]
  Plant response rating, Oat, Wild: 10
[7]; [23]
  Plant response rating, Oat, Wild: 5
[7]; [24]
  Plant response rating, Oat, Wild: 15
[7]; [25]
  Plant response rating, Oat, Wild: 35
[7]; [26]
  Plant response rating, Oat, Wild: 70
[8]
  Plant response rating, Barnyardgrass (0 to 100 scale, 0 is no effect, 100 is complete control): 55
